Measured values: patent US20240182449A1, “CRYSTALLINE FORMS OF AN MK2 INHIBITOR” (XinThera, Inc., priority 2022, published 2024)
In brackets after ≈: the same amount, converted by molar mass. Several values for one entry are separate records, joined by “and”; a condition that tells them apart may be missing. Identical values can stand only once. Entries after “also recorded” stand apart in the source; their conditions may differ.

Legend:
[1] = pH solubility profile; type: physicochemical
Description: Different pH buffers (pH 1.0, 3.0, 5.0, 6.8 and 9.0) were prepared by method in Table 20. Then 10 mg of Form X was added into 2 mL of different buffers (pH=1.0, 3.0, 5.0, 6.8 and 9.0) to make suspensions. The suspensions were kept shaking with a speed of 1000 rpm at 25° C. for 4 and 24 hours. At each point, the suspensions were centrifuged, and the supernatant was inspected by HPLC/pH, and the wet cakes were analyzed by XRPD. Duplicate samples were prepared.

[2] = Slurry competition experiments (thermodynamic stability relationship); type: physicochemical; details: RT, also in pure water
Description: Slurry competition experiments were carried out between anhydrous and hydrates, to establish stability relationships. Appropriate amount of Form I was suspended in different solvents for pre-saturation at RT. Then the filtrate was added into equal amount of different forms, and the mixture was kept stirring at RT for certain time before XRPD tests.

[3] = Solubility estimation at RT by visual observation in selected solvent systems
Description: The solubility of compound 1 Form I and Form X was estimated at RT by visual observation in selected solvent systems. Approximately 5 mg solids were weighed into 8 mL glass vial, and then solvent was added stepwise until solids were dissolved completely or a total of solvent volume reached 5 mL.

[4] = Slurry conversion of Form I and Form X in solvents (XRPD result); type: physicochemical; details: for XRPD Result-Day 3: slurry at 80° C.
Description: Appropriate amount of Form I was added into different solvents to make suspensions, which were kept stirring at RT and 50° C. for 3 and 7 days, and at 80° C. for 3 days. Solid samples were collected by centrifugation and analyzed by XRPD. Forms I-IV, VII and VIII were obtained by slurry experiments of Form I.
Appropriate amount of Form X was added into different solvents to make suspensions, which were kept stirring at RT and 50° C. for 3 and 7 days, and at 80° C. for 3 days. Solid samples were collected by centrifugation and analyzed by XRPD.

[5] = Solid-state stability (HPLC purity and XRPD); type: physicochemical; details: for solid-state stability (form change, purity): 7 days
Description: Solid-state stability of Form X was conducted at 60° C. (capped) and 40° C./75% RH (open) for 7 days. The stability sample was dissolved in diluent to prepare solution at ˜1 mg/mL for HPLC purity analysis. Solid samples were analyzed by XRPD to check the crystal form.

[6] = Solubility in bio-relevant media (SGF, FaSSIF, FeSSIF) and water; type: physicochemical; details: for Solubility: 37° C.
Description: The solubility of Form X was measured in bio-relevant media (SGF, FaSSIF and FeSSIF) and water at 37° C. with 800 rpm for up to 24 hours. About 15 mg of Form X was weighed into sample vials and then 3 mL of three bio-relevant media and water were added to make suspensions, respectively. At 0.5, 2 and 24 hours, about 1 mL of each suspension was filtered, the filtrates were analyzed by HPLC and pH, and the filter cakes were analyzed by XRPD. Duplicate samples were prepared. […] A little higher solubility in FeSSIF was possibly due to the effect of bile salt.

[7] = Mechanical stability (manual grinding, XRPD); type: physicochemical
Description: Appropriate amount of Form X was manually ground by pestle and mortar for about 2 minutes and 5 minutes, and then analyzed by XRPD.

[8] = Hygroscopicity by DVS; type: physicochemical
Description: DVS was performed on Form X, to evaluate its hygroscopicity and physical stability under different humidity.
Moisture sorption/desorption data were collected on a DVS instrument. Appropriate amount of sample was placed into a tared sample chamber and automatically weighed. The sample was analyzed with the setting parameters in the table below.

[9] = slurry at 50° C., Acetone/water (1/3)
[10] = slurry at 50° C., MeOH/Water (1/4)
[11] = slurry at RT, Acetone/water (1/3)

With `[2H]C([2H])(Oc1cc(C)n(-c2c(C)cnc(-n3ccc(C(C)(C)O)n3)c2F)c(=O)c1Cl)c1ncc(F)cc1F` [Form X] the “XRPD of wet cake after pH solubility test” value ([1]; 4/24 h, all pH buffers) was “Unchanged”, the “crystal form after pH solubility test” value ([1]; XRPD of wet cake) was “remained unchanged” and the “Solubility (1T/2T, mg/mL)” value ([1]; pH 1.0, 25° C., 4 h) was 0.074 mg/mL (≈ 142 µM). The “Solubility (1T/2T, mg/mL)” value ([1]; pH 1.0, 25° C., 24 h) was 0.075 mg/mL (≈ 144 µM), the pH-dependence of solubility ([1]; pH 1.0-9.0 buffers, 25° C.) was “no pH-dependence” and the “Solubility (1T/2T, mg/mL)” value ([1]; pH 3.0 buffer, 25° C., 4 h) was 0.060 mg/mL (≈ 115 µM). The “Solubility (1T/2T, mg/mL)” value ([1]; pH 3.0 buffer, 25° C., 24 h) was 0.073 mg/mL (≈ 140 µM), the “Solubility (1T/2T, mg/mL)” value ([1]; pH 5.0 buffer, 25° C., 4 h) was 0.061 mg/mL (≈ 117 µM) and the “Solubility (1T/2T, mg/mL)” value ([1]; pH 5.0 buffer, 25° C., 24 h) was 0.060 mg/mL (≈ 115 µM). The “Solubility (1T/2T, mg/mL)” value ([1]; pH 6.8 buffer, 25° C., 4 h) was 0.060 mg/mL (≈ 115 µM), the “Solubility (1T/2T, mg/mL)” value ([1]; pH 6.8 buffer, 25° C., 24 h) was 0.060 mg/mL (≈ 115 µM) and the “Solubility (1T/2T, mg/mL)” value ([1]; pH 9.0 buffer, 25° C., 4 h) was 0.060 mg/mL (≈ 115 µM). For the same compound, the “Solubility (1T/2T, mg/mL)” value ([1]; pH 9.0 buffer, 25° C., 24 h) was 0.062 mg/mL (≈ 119 µM), the “thermodynamic stability in slurry competition of anhydrous forms and hydrates” value [2] was “thermodynamically more stable even in pure water at room temperature; also recorded: thermodynamically stable even in pure water” and the “estimated solubility compared with Form I” value [3] was “decreased solubility in some solvents”. The “XRPD Result Day 3” value [4, 9] was “Form X”, the “XRPD Result Day 7” value [4, 9] was “Form X” and the “XRPD Result Day 3” value ([4]; slurry at 50° C., IPA) was “Form X”. The “XRPD Result Day 7” value ([4]; slurry at 50° C., IPA) was “Form X”, the “XRPD Result Day 3” value ([4]; slurry at 50° C., IPE) was “Form X” and the “XRPD Result Day 7” value ([4]; slurry at 50° C., IPE) was “Form X”. The “XRPD Result Day 3” value ([4]; slurry at 50° C., MTBE) was “Form X”, the “XRPD Result Day 7” value ([4]; slurry at 50° C., MTBE) was “Form III” and the “XRPD Result Day 3” value [4, 10] was “Form X”. For the same compound, the “XRPD Result Day 7” value [4, 10] was “Form X”, the “XRPD Result Day 3” value ([4]; slurry at 50° C., Toluene) was “Form X” and the “XRPD Result Day 7” value ([4]; slurry at 50° C., Toluene) was “Form X”. The “XRPD Result Day 3” value ([4]; slurry at 50° C., Water) was “Form X”, the “XRPD Result Day 7” value ([4]; slurry at 50° C., Water) was “Form X” and the “XRPD Result-Day 3” value ([4]; CYH) was “Form X”. For the same compound, the “XRPD Result-Day 3” value ([4]; Heptane) was “Form X”, the “XRPD Result-Day 3” value ([4]; IPA/Water (1/2)) was “Clear” and the “XRPD Result-Day 3” value ([4]; IPA/Water (1/3)) was “Form X”. The “XRPD Result-Day 3” value ([4]; IPAc/Heptane (1/2)) was “Form X”, the “XRPD Result-Day 3” value ([4]; MeCYH) was “Form X” and the “XRPD Result-Day 3” value ([4]; Water) was “Form X”. The “XRPD Result Day 3” value [4, 11] was “Form X”, the “XRPD Result Day 7” value [4, 11] was “Form X” and the “XRPD Result Day 3” value ([4]; slurry at RT, EtOH) was “Clear”. For the same compound, the “XRPD Result Day 7” value ([4]; slurry at RT, EtOH) was “Clear”, the “XRPD Result Day 3” value ([4]; slurry at RT, IPA) was “Form X” and the “XRPD Result Day 7” value ([4]; slurry at RT, IPA) was “Form X”. The “XRPD Result Day 3” value ([4]; slurry at RT, IPAc) was “Form X”, the “XRPD Result Day 7” value ([4]; slurry at RT, IPAc) was “Form X” and the “XRPD Result Day 3” value ([4]; slurry at RT, IPE) was “Form X”. The “XRPD Result Day 7” value ([4]; slurry at RT, IPE) was “Form X”, the “XRPD Result Day 3” value ([4]; slurry at RT, MIBK) was “Form X” and the “XRPD Result Day 7” value ([4]; slurry at RT, MIBK) was “Form X”. For the same compound, the “XRPD Result Day 3” value ([4]; slurry at RT, MTBE) was “Form III”, the “XRPD Result Day 7” value ([4]; slurry at RT, MTBE) was “Form III” and the “XRPD Result Day 3” value ([4]; slurry at RT, MeOH/water (1/4)) was “Form X”. For the same compound, the “XRPD Result Day 7” value ([4]; slurry at RT, MeOH/water (1/4)) was “Form X”, the “XRPD Result Day 3” value ([4]; slurry at RT, Toluene) was “Form X” and the “XRPD Result Day 7” value ([4]; slurry at RT, Toluene) was “Form X”. The “XRPD Result Day 3” value ([4]; slurry at RT, Water) was “Form X”, the “XRPD Result Day 7” value ([4]; slurry at RT, Water) was “Form X” and the “Stability (physical)” value ([5]; 40° C./75% RH (open), 1 week) was “Physically stable at 40° C./75% RH (open)”. For the same compound, the “XRPD Result” value ([5]; 40° C./75% RH (open), 1 week) was “Form X”, the “Purity (area %)” value ([5]; 40° C./75% RH (open), 1 week, duplicate samples) was 99.94 area % and 99.93 area % and the “solid-state stability (form change, purity)” value ([5]; 40° C./75% RH (open)) was “physically and chemically stable; also recorded: No form change or purity decrease”. The “XRPD Result” value ([5]; 60° C. (capped), 1 week) was “Form X”, the “Purity (area %)” value ([5]; 60° C. (capped), 1 week, duplicate samples) was 99.93 area % and 99.94 area % and the “solid-state stability (form change, purity)” value ([5]; 60° C. (capped)) was “physically and chemically stable; also recorded: No form change or purity decrease”. The “Stability (physical)” value ([5]; 60° C., 1 week) was “Physically stable at 40° C./75% RH (open)”, the “Purity (area %)” value ([5]; Initial) was 99.94 area % and the “XRPD Result” value ([5]; Initial) was “Form X”. For the same compound, the “XRPD of filter cake after solubility test” value ([6]; 0.5/2/24 h, all media (SGF, FaSSIF, FeSSIF, water)) was “^a Form X remained unchanged during solubility test in all media”, the Solubility ([6]; FaSSIF, 0.5 h) was 69 µg/mL (≈ 132 µM) and the Solubility ([6]; FaSSIF, 2 h) was 70 µg/mL (≈ 134 µM). The Solubility ([6]; FaSSIF, 24 h) was 74 µg/mL (≈ 142 µM), the Solubility ([6]; FeSSIF, 0.5 h) was 97 µg/mL (≈ 186 µM) and the Solubility ([6]; FeSSIF, 2 h) was 97 µg/mL (≈ 186 µM). For the same compound, the Solubility ([6]; FeSSIF, 24 h) was 124 µg/mL (≈ 238 µM), the Solubility ([6]; SGF, 0.5 h) was 74 µg/mL (≈ 142 µM) and the Solubility ([6]; SGF, 2 h) was 70 µg/mL (≈ 134 µM). The Solubility ([6]; SGF, 24 h) was 66 µg/mL (≈ 126 µM), the Solubility ([6]; Water, 0.5 h) was 74 µg/mL (≈ 142 µM) and the Solubility ([6]; Water, 2 h) was 74 µg/mL (≈ 142 µM). The Solubility ([6]; Water, 24 h) was 70 µg/mL (≈ 134 µM), the “crystal form after solubility test” value ([6]; all media, XRPD of filter cake) was “remained unchanged” and the “Crystallinity after manual grinding” value ([7]; manual grinding) was “with slight crystallinity decrease after”. The “crystal form after grinding” value ([7]; manually ground about 2 and 5 minutes) was “remained unchanged with slight crystallinity decrease”, the “XRPD after DVS” value [8] was “No change” and the hygroscopicity ([8]; DVS) was “non-hygroscopic”. For the same compound, the water uptake ([8]; DVS, 80% RH) was 0.11%, the water uptake ([8]; DVS, 90% RH) was 0.16% and the “crystal form after DVS test” value ([8]; after DVS test) was “remained unchanged”. For the same compound, the “DVS Wt. Gain %” value ([8]; at 80% RH) was 0.11%, the “DVS Wt. Gain %” value ([8]; at 90% RH) was 0.16% and the “Hygroscopicity (DVS)” value ([8]; classification in words) was “non-hygroscopic”.
